Test results as given in patent publication US20060123501A1, “Method for treating inflammatory disorders” (priority 2004, published 2006).
Where two headings read alike, the source gives them in different places.

Key:
[1] = system: cIAP2−/− and control mice; conditions: LPS 0 μg/kg, D-galactosamine 0.6 g/kg i.p.
Description: In addition, we exposed cIAP2^−/− mice to a second mode of LPS-induced toxicity, where treatment with D-galactosamine (DGLBN) sensitized mice to endotoxic shock.

[2] = system: spleen derived T cells; test: Dexamethasone-induced death of T cells pre-incubated with IL-7; format: cell-based, mouse; conditions: dexamethasone 100 nM
Protocol: Peritoneal-derived macrophages from cIAP2^−/− (lower panels) and cIAP2^+/+ mice (upper panels) were either pre-treated with LPS for 4 h or not pre-treated prior to exposure to α-Fas antibody and then TUNEL stained to assess cell viability (A). Percentages of viable cells (n=5, average of triplicate wells per mouse, P values were <0.01) are shown within each TUNEL stained panel along with the standard deviation. cIAP2^−/−-derived (open shapes) and cIAP2^+/+-derived (solid shapes) T cells were pre-incubated with a range of IL-7 concentrations and then exposed to dexamethasone and T cell survival was monitored over a 12 h period (B) (n=3, average of triplicate wells per mouse, results are mean±s.d., P values at the 12 h point were <0.05). Peritoneal-derived cell numbers are shown for macrophages of cIAP2^−/− mice and littermate control cIAP2^+/+ mice injected i.p. with LPS(C). […]
Confluent primary cultures of peritoneal-derived macrophages were either pre-treated with LPS (10 μg/ml, 4 h) or not pre-treated prior to exposure to α-Fas antibody (20 μg/ml, clone Jo2) and then TUNEL stained (Roche) to assess cell viability. Primary cultures of spleen derived T cells were pre-incubated with a range of IL-7 concentrations (0, 5, and 10 ng/ml) and then exposed to dexamethasone (100 nM) and T cell survival was monitored over a 12 h period.

For `N[C@H]1C(O)O[C@H](CO)[C@H](O)[C@@H]1O` (stereo partly drawn) [D-galactosamine], the Survival ([1]; cIAP2+/+ mice) was 6/6 and the Survival ([1]; cIAP2−/− mice) was 6/6.

B1: IL-7: cIAP2-inducing agent that imparts T cells with increased apoptotic resistance (protein, UniProt P13232 26-177, looked up)
Interleukin-7: DCDIEGKDGKQYESVLMVSIDQLLDSMKEIGSNCLNNEFNFFKRHICDANKEGMFLFRAARKLRQFLKMNSTGDFDLHLLKVSEGTTILLNCTGQVKGRKPAALGEAQPTKSLEENKSLKEQKKLNDLCFLKRLLQEIKTCWNKILMGTKEH
B1 was tested, and the “Resistance to apoptosis with or without IL-7 pretreatment” value ([2]; cIAP2−/− T cells) was “displayed no difference in the resistance to apoptosis” and the “Resistance against dexamethasone-induced death after IL-7 pre-exposure” value ([2]; wild-type T cells, IL-7 5 or 10 ng/ml) was “showed a dose dependent resistance against dexamethasone-induced death”.
